Reference: US20240246963A1, “BIFUNCTIONAL COMPOUNDS AND PHARMACEUTICAL USES THEREOF” (RISEN (SUZHOU) PHARMA TECH CO., LTD., priority 2022, published 2024)

Key:
Format in all cases: cell-based
RAS G12D protein = target: T1, RAS G12D protein (Homo sapiens, UniProt P01116, G12D); assay: Protein degradation study (western blot) in Aspc-1 cells; conditions: for percent protein degradation at 0.005 µM: 0.005 μM compound; for percent protein degradation at 0.05 µM: 0.05 μM compound; for Dmax: ASPC1; for DC50: half-maximum degradation concentration on G12D in Aspc-1 cells
T1 construct: host or cells: Aspc-1 (AsPC-1) cells
T1 sequence (P01116 1-188 isoform P01116-2 G12D): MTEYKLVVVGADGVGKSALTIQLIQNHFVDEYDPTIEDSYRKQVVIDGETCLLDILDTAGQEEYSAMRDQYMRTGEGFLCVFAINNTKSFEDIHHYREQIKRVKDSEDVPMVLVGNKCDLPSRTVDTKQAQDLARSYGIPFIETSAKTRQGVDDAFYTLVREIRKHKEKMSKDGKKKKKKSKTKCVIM
Experimental: Aspc-1 (Cobioer, CBP60546) cells in exponential growth phase were inoculated on a 6-well cell culture plate (Corning, 3516) at density of 1E6/well; and cells in the plate were cultured in a 37° C. incubator containing 5%-carbon dioxide. The next day, test compounds were dissolved in DMSO (Sigma, RNBF5902) for the preparation of a 10-mM concentration stock solution. The stock solution was diluted with complete medium (RPMI-1640 supplemented with 10% fetal bovine serum, 1% penicillin-streptomycin), yielding working solutions of various concentrations. The plate, after the addition of compounds, was placed in a 5% carbon dioxide incubator, and incubated at 37° C. for 24 hours (final DMSO concentration was 0.1%). The plate was then removed from the incubator, and the cells were washed twice with precooled PBS (Gibco, 14190250), followed by addition of 80 μL RIPA (CST, 9806S) lysis buffer (containing protease inhibitor (Invitrogen™, AM2696)) to each well. The adherent cells were scraped off with a cell scraper, and the cell lysate was transferred to a 1.5 mL centrifuge tube followed with a 30-minute incubation on ice. The lysate was then clarified with centrifugation at 12000 rpm for 10 min at 4° C. The supernatant was transferred into a new 1.5 mL centrifuge tube, and protein concentration was measured with BCA protein detection kit (Thermo Fisher, 23225). G12D protein level was assessed by western blot. A mixture of cell lysate (40 μL) and loading buffer (10 μL, 5×SDS (Beyotime, P0015L)) was denatured in a water-bath at 95° C. for 10 min. The denatured protein sample, at 30 μg/well, was loaded into a corresponding well of a 4-20% Bis-Tris gel (Kingsley, M00656). Protein samples were initially electrophoresed at 80 V for 30 minutes, followed by 120 V for 40 minutes, until the bromophenol blue strip ran to an appropriate position. After electrophoresis, iBlot2 (Life Technologies, IB21001) was used to transfer the separated samples onto PVDF film. The PVDF membrane was washed with double-distilled water and then blocked in TBST (Thermo Scientific, 28360) buffer containing 5% non-fat milk, for 2 hours. Blocked membrane was rinsed with tris-buffered saline tween-2 (Thermo Scientific, 28360, TBST) three times, 10 minutes each. Membrane was then incubated with 1:1000 diluted RAS Gi2D primary antibody (CST, cat #14429S) overnight at 4° C. Membrane was rinsed in a way described previously followed by 1 hour incubation of secondary antibody at room temperature. After washing the film for three times with TBST, ECL color developing solution was applied, and image was captured with Biorad Chemi Doc gel imager. The band gray value was quantified (Image Lab), and protein degradation level was calculated according to the following formulas:
Level of RAS G12D protein expression=(RAS G12D−compound/β-Actin)−compound/(RAS G12D−DMSO/β-Actin−DMSO)
Level of degradation (%)=(1−Rate of RAS G12D protein expression)×100
Symbols of −, +, ++, +++, ++++, +++++ indicate that the degradation level of Ras protein induced by test compounds was 10% or less, 10 to 30%, 30 to 60%, 60 to 70%, 70 to 75%, and greater than 75%, respectively. “NT” indicates not tested.
“NT” indicates not tested.

NCI-H358 cells (G12C) = assay: Cell proliferation study (Cell Titer Glo, 72 hours), NCI-H358; conditions: Homo sapiens
Experimental: (§1) Aspc-1(Cobioer, CBP60546), GP2D(Cobioer, CBP60683), Mia paca2 (Cobioer, CBP60136), NCI-H358 (Cobioer, CBP60544), H727 (Cobioer, CBP60182), MKN-1 (Cobioer, CBP60486), and PSN1 (Cobioer, CBP61215) cells in exponential growth phase were seeded into a 96-well plate (Greiner, 655090) at density of 3E3/well. Cells were cultured overnight at 37° C. with 5% CO2. On the next day, cells were treated with compound at various concentrations for 72 hours in 37° C., 5% CO2 incubator (final DMSO concentration was 0.1%). After treatment, 100 μL Cell Tier Glo (Promega, G7573) were added to every well on the cell plate and incubated at room temperature (RT) for 10 minutes. Cell growth status was measured with Cell Tier Glo (Promega, G7573) following manufacturer's directions. Inhibition level was calculated according to the following formula: […]
(§2) where the “Maximum Signal” are signal of wells containing DMSO without compound; the “Minimum Signal” are signal of wells recorded at Day 0 prior to commencement of the experiment; and the “Test compound signal” are signal of wells containing compound at established concentrations.
(§3) The inhibition curve was obtained with GraphPad 7.0 software using four-parameter equation.

NCI-H727 cells (G12V) = assay: Cell proliferation study (Cell Titer Glo, 72 hours), NCI-H727; conditions: Homo sapiens
Experimental: as §1, §2, §3

GP2D cells (G12D) = assay: Cell proliferation study (Cell Titer Glo, 72 hours), GP2D
Experimental: as §1, §2, §3

AsPc-1 cells (G12D) = assay: Cell proliferation study (Cell Titer Glo, 72 hours), AsPc-1; conditions: Homo sapiens, ASPC1
Experimental: as §1, §2, §3

[1] = ASPC1, 24 h, Aspc-1 cells, 24 hours, read-out: Rate of protein degradation (%)

Compound	percent protein degradation at 0.001 µM (RAS G12D protein; ASPC1, 24 h, 1 nM compound, Aspc-1 cells, 24 hours, read-out: Rate of protein degradation (%))	percent protein degradation at 0.005 µM (RAS G12D protein; [1])	percent protein degradation at 0.05 µM (RAS G12D protein; [1])	Dmax (RAS G12D protein; G12D in Aspc-1 cells)	DC50 (RAS G12D protein)	IC50 (NCI-H358 cells (G12C))	IC50 (NCI-H727 cells (G12V))	IC50 (GP2D cells (G12D))	IC50 (AsPc-1 cells (G12D))	DC50 ranking among test compounds (RAS G12D protein; G12D in Aspc-1 cells)
CCc1c(F)ccc2cc(O)cc(-c3ncc4c(N5CCC[C@@](C)(O)C5)nc(OCC5(CN6CCC7(CC6)CC(N6CCC(c8ccc9c(c8)CN(C8CCC(=O)NC8=O)C9=O)CC6)C7)CC5)nc4c3F)c12 (stereo partly shown) [Compound 130]	70 to 75%	70 to 75%	30 to 60%	73%	< 1 nM	64.8 nM	4.45 nM	0.219 nM	12.4 nM	
CCc1c(F)ccc2cc(O)cc(-c3ncc4c(N5CCC[C@]6(CCO6)C5)nc(OCC5(CN6CCC7(CC6)CC(N6CCC(c8ccc9c%10c(cccc8%10)C(=O)N9C8CCC(=O)NC8=O)CC6)C7)CC5)nc4c3F)c12 (stereo partly shown) [Compound 179a]		> 75%	> 75%	70%	< 1 nM	126 nM	18.5 nM	0.123 nM	57.8 nM	lowest DC50 value
C[C@@]1(O)CCCN(c2nc(OCC3(CN4CCC5(CC4)CC(N4CCC(c6ccc7c8c(cccc68)C(=O)N7C6CCC(=O)NC6=O)CC4)C5)CC3)nc3c(F)c(-c4cc(N)cc(Cl)c4C(F)(F)F)ncc23)C1 (stereo partly shown) [Compound 200]		70 to 75%	> 75%			> 1000 nM	45.8 nM	0.991 nM	> 1000 nM	
CCc1c(F)ccc2cc(O)cc(-c3ncc4c(N5CCC[C@]6(CCO6)C5)nc(OCC5(CN6CCC7(CC6)CC(N6CCC(c8ccc9c(C%10CCC(=O)NC%10=O)nn(C)c9c8)CC6)C7)CC5)nc4c3F)c12 (stereo partly shown) [Compound 201]		> 75%	> 75%	80%	< 1 nM	9.92 nM	2.09 nM	0.256 nM	4.98 nM	
CCc1c(F)ccc2cc(O)cc(-c3ncc4c(N5CCC[C@]6(CCO6)C5)nc(OCC5(CN6CC(C(=O)N7CCC(c8ccc9c(C%10CCC(=O)NC%10=O)nn(C)c9c8)CC7)C6)CC5)nc4c3F)c12 (stereo partly shown) [Compound 207]		30 to 60%	60 to 70%					3.53 nM	198 nM	
CCc1c(F)ccc2cc(O)cc(-c3ccc4c(N5CCC[C@]6(CCO6)C5)nc(OCC5(CN6CCC7(CC6)CC(N6CCC(c8cc9c(cc8F)c(N8CCC(=O)NC8=O)nn9C)CC6)C7)CC5)nc4c3F)c12 [Compound 232]		10 to 30%	30 to 60%							
CCc1c(F)ccc2cc(O)cc(-c3ncc4c(N5CCC[C@]6(CCO6)C5)nc(OCC5(CN6CCC7(CCC(N8Cc9cc%10c(cc9C8)C(=O)N(C8CCC(=O)NC8=O)C%10=O)CC7)CC6)CC5)nc4c3F)c12 (stereo partly shown) [Compound 233]		10 to 30%	30 to 60%							
CCc1c(F)ccc2cc(O)cc(-c3ncc4c(N5CCC[C@]6(CCO6)C5)nc(OCC5(CN6CCC7(CC6)CC(N6CCC(c8ccc9c(=O)n(C%10CCC(=O)NC%10=O)ccc9c8)CC6)C7)CC5)nc4c3F)c12 (stereo partly shown) [Compound 234]		30 to 60%	70 to 75%	65%	11 to 50 nM	17.9 nM	4.4 nM		43.2 nM	
CCc1c(F)ccc2cc(O)cc(-c3ncc4c(N5CCC[C@@](C)(O)C5)nc(OCC5(CN6CCC7(CC6)CC(N6CCC(c8cc9c(cc8F)c(N8CCC(=O)NC8=O)nn9C)CC6)C7)CC5)nc4c3F)c12 [Compound 235]		30 to 60%	> 75%	71%	1 to 10 nM	10.3 nM	0.8 nM		63.5 nM	
CCc1c(F)ccc2cc(O)cc(-c3ncc4c(N5CCC[C@]6(CCO6)C5)nc(OCC5(CN6CCC(CN7Cc8cc9c(cc8C7)C(=O)N(C7CCC(=O)NC7=O)C9=O)CC6)CC5)nc4c3F)c12 (stereo partly shown) [Compound 237]		10 to 30%	10 to 30%							
CCc1cccc2cc(O)cc(-c3ncc4c(N5CCC[C@]6(CCO6)C5)nc(OCC5(CN6CCC7(CC6)CC(N6CCC(c8cc9c(cc8F)c(N8CCC(=O)NC8=O)nn9C)CC6)C7)CC5)nc4c3F)c12 [Compound 238]		> 75%	30 to 60%	73%	11 to 50 nM					
Cn1nc(N2CCC(=O)NC2=O)c2cc(F)c(C3CCN(C4CC5(CCN(CC6(COc7nc(N8CCC[C@]9(CCO9)C8)c8cnc(-c9cc(O)cc%10ccc(F)c(F)c9%10)c(F)c8n7)CC6)CC5)C4)CC3)cc21 [Compound 241]		60 to 70%	30 to 60%	71%	11 to 50 nM					
CCc1c(F)ccc2cc(O)cc(-c3ncc4c(N5CCC[C@@](C)(O)C5)nc(OCC5(CN6CCC7(CC6)CC(N6CCC(c8cc9c(cc8F)c(N8CCC(=O)NC8=O)nn9C)C(F)(F)C6)C7)CC5)nc4c3F)c12 (stereo partly shown) [Compound 243]		30 to 60%	> 75%	74%	1 to 10 nM					
CCc1c(F)ccc2cc(O)cc(-c3ncc4c(N5CCC[C@]6(CCO6)C5)nc(OCC5(CN6CCC(CN7CCC(c8ccc9ccn(C%10CCC(=O)NC%10=O)c(=O)c9c8)CC7)CC6)CC5)nc4c3F)c12 (stereo partly shown) [Compound 244]		30 to 60%	30 to 60%							
